Test results from patent publication US4818816A, “Process for the organic synthesis of oligosaccharides and derivatives thereof” (Choay, S.A., priority 1981, dated 1989).

Key:
Xa factor [1] = assay: anti-Xa activity, Yin-Wessler test; assay type: biochemical
Xa factor [2] = assay: anti-Xa test using a chromogen substrate (method of Teien A.M. and Lie modified); assay type: biochemical; conditions: Xa factor (Sigma) 8 u/ml, substrate 1.33 mM, diluted human plasma, 37° C.
Method: In a test using a chromogen substrate, this activity has even been 4000 anti-Xa units/mg (method of Teien A.M. and Lie modified; Thrombosis Research No. 10, 1977, 388-410).
This test consists of using the Xa factor marketed by the Sigma company in solution at 8 u/ml in physiological serum, the concentration of the substrate being 1.33 mM.
To carry out this test it is possible to proceed as follows.
10 μl of solution to be determined and 300 μl of human plasma diluted with Tris maleate buffer 0.02M, […] are mixed.
It is left to incubate one minute at 37° C.
100 μl of the above-said Xa factor (8 u/ml) are added and one minute later, the solution obtained is injected into the substrate.

AT III = assay: affinity for AT III; assay type: binding
blood coagulation = assay: APTT test, overall anticoagulant activity

Structure (SMILES)	anti-Xa activity (Yin-Wessler) (Xa factor [1])	Yin-Wessler titres compared with those of heparin (Xa factor [1]; compared with heparin)	selective inhibition activity of the activated X factor or Xa factor of the blood (Xa factor [1]; test not specified)	anti-Xa activity in a test using a chromogen substrate (Xa factor [2])	affinity for AT III (AT III)	overall anticoagulant activity (APTT test) (blood coagulation)
O=C(O)[C@H]1O[C@@H](O[C@H]2[C@H](OS(=O)(=O)O)[C@@H](NS(=O)(=O)O)C(O)O[C@@H]2COS(=O)(=O)O)[C@H](O)[C@@H](O)[C@@H]1O[C@H]1O[C@H](COS(=O)(=O)O)[C@@H](O)[C@H](O)[C@H]1NS(=O)(=O)O (stereo partly shown)	~7 u/mg					
O=C(O)[C@H]1O[C@@H](O[C@H]2[C@H](OS(=O)(=O)O)[C@@H](NS(=O)(=O)O)[C@@H](O[C@H]3[C@H](O)[C@@H](OS(=O)(=O)O)[C@H](O[C@H]4[C@H](O)[C@@H](NS(=O)(=O)O)C(O)O[C@@H]4COS(=O)(=O)O)O[C@H]3C(=O)O)O[C@@H]2COS(=O)(=O)O)[C@H](O)[C@@H](O)[C@@H]1O[C@H]1O[C@H](COS(=O)(=O)O)[C@@H](O)[C@H](O)[C@H]1NS(=O)(=O)O (stereo partly shown) [pentasaccharide 50]	≥ 2000 u/mg	distinctly higher	very high selective inhibition activity	4000 anti-Xa units/mg	high affinity	4 u/mg
